# Biological target: unphosphorylated-BTK kinase domain (UP-BTK), GST-tagged human BTK (389-659aa) (Homo sapiens (Human), UniProt Q06187)
# Assay: BTK kinase Lanthascreen binding assay
# Details: negative log of the IC50 in molar; 60 minutes incubation with 50 nM Tracer 236
# Procedure: BTK Kinase Lanthascreen Binding Assay:
# A BTK kinase lanthascreen binding assay monitors compound binding to unphosphorylated-BTK kinase domain (UP-BTK), by competing with a fluorescent labeled tracer. […] Data were analyzed using Xlfit™ version 5.3 from ID Business Solutions (Guildford), Microsoft Excel add-in. pIC50 refers to the negative log of the IC50 in molar.
# unphosphorylated-BTK kinase domain (UP-BTK), GST-tagged human BTK (389-659aa), sequence (Q06187 389-659): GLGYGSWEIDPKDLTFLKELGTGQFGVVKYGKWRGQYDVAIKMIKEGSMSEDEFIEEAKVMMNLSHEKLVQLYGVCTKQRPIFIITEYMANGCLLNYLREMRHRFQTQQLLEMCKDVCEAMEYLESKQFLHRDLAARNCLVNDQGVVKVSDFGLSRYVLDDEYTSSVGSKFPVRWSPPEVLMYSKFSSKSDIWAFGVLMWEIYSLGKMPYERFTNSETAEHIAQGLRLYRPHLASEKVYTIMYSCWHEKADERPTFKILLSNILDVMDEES
row,Structure (SMILES),BTK_I_binding pIC50
1,"C=CC(=O)N1CCC[C@@H](NC(=O)c2sc3nccc4c3c2NC(=O)N4c2ccc(OC3CCOCC3)cc2C)C1 (single isomer, unassigned) [Example 742, (R)—N-(1-Acryloylpiperidin-3-yl)-5-(*S)-(2-methyl-4-((tetrahydro-2H-pyran-4-yl)oxy)phenyl)-4-oxo-4,5-dihydro-3H-1-thia-3,5,8-triazaacenaphthylene-2-carboxamide]",5.8
2,"C=CC(=O)N1CC[C@@H](NC(=O)c2sc3nccc4c3c2NC(=O)N4c2cnc(CC(C)C)cc2C)C1 (single isomer, unassigned) [Example 747, (R)—N-(1-Acryloylpyrrolidin-3-yl)-5-(*S)-(6-isobutyl-4-methylpyridin-3-yl)-4-oxo-4,5-dihydro-3H-1-thia-3,5,8-triazaacenaphthylene-2-carboxamide]",7.5
3,"C=CC(=O)N1CC[C@@H](NC(=O)c2sc3nccc4c3c2NC(=O)N4c2cnc(CC(C)C)cc2C)C1 (single isomer, unassigned) [Example 756, (R)—N-(1-Acryloylpyrrolidin-3-yl)-5-(*R)-(6-isobutyl-4-methylpyridin-3-yl)-4-oxo-4,5-dihydro-3H-1-thia-3,5,8-triazaacenaphthylene-2-carboxamide]",<6
4,"CCC(=O)N1CCC[C@@H](NC(=O)c2sc3nccc4c3c2NC(=O)N4c2cnc(CC(C)C)cc2C)C1 (single isomer, unassigned) [Example 765, (R)-5-(*S)-(6-Isobutyl-4-methylpyridin-3-yl)-4-oxo-N-(1-propionylpiperidin-3-yl)-4,5-dihydro-3H-1-thia-3,5,8-triazaacenaphthylene-2-carboxamide]",6.5
5,"C=CC(=O)N1CCC[C@@H](NC(=O)c2sc3nccc4c3c2NC(=O)N4c2cnc(OCC(C)C)cc2C)C1 (single isomer, unassigned) [Example 766, (R)—N-(1-Acryloylpiperidin-3-yl)-5-(*S)-(6-isobutoxy-4-methylpyridin-3-yl)-4-oxo-4,5-dihydro-3H-1-thia-3,5,8-triazaacenaphthylene-2-carboxamide]",8.2
6,"C=CC(=O)N1CCC[C@@H](NC(=O)c2sc3nccc4c3c2NC(=O)N4c2cnc(OCC(C)C)cc2C)C1 (single isomer, unassigned) [Example 767, (R)—N-(1-Acryloylpiperidin-3-yl)-5-(*R)-(6-isobutoxy-4-methylpyridin-3-yl)-4-oxo-4,5-dihydro-3H-1-thia-3,5,8-triazaacenaphthylene-2-carboxamide]",<6
7,"C=CC(=O)N1CC[C@@H](NC(=O)c2sc3nccc4c3c2NC(=O)N4c2cnc(OC3CCCC3)cc2C)C1 (single isomer, unassigned) [Example 776, (R)—N-(1-Acryloylpyrrolidin-3-yl)-5-(*S)-(6-(cyclopentyloxy)-4-methylpyridin-3-yl)-4-oxo-4,5-dihydro-3H-1-thia-3,5,8-triazaacenaphthylene-2-carboxamide]",8.1
8,"C=CC(=O)N1CC[C@@H](NC(=O)c2sc3nccc4c3c2NC(=O)N4c2cnc(OCC(C)C)cc2C)C1 (single isomer, unassigned) [Example 779, (R)—N-(1-Acryloylpyrrolidin-3-yl)-5-(*S)-(6-isobutoxy-4-methylpyridin-3-yl)-4-oxo-4,5-dihydro-3H-1-thia-3,5,8-triazaacenaphthylene-2-carboxamide]",8.0
9,"C=CC(=O)N1CCC[C@@H](NC(=O)c2sc3nccc4c3c2NC(=O)N4c2ccc(CC(C)C)nc2C)C1 (single isomer, unassigned) [Example 792, (R)—N-(1-Acryloylpiperidin-3-yl)-5-(*S)-(6-isobutyl-2-methylpyridin-3-yl)-4-oxo-4,5-dihydro-3H-1-thia-3,5,8-triazaacenaphthylene-2-carboxamide]",6.4
10,"C=CC(=O)N1CCC[C@@H](NC(=O)c2sc3nccc4c3c2NC(=O)N4c2ccc(CC(C)C)nc2C)C1 (single isomer, unassigned) [Example 815, (R)—N-(1-Acryloylpiperidin-3-yl)-5-(*R)-(6-isobutyl-2-methylpyridin-3-yl)-4-oxo-4,5-dihydro-3H-1-thia-3,5,8-triazaacenaphthylene-2-carboxamide]",<6
11,"C=CC(=O)N[C@H]1COC[C@H]1NC(=O)c1sc2nccc3c2c1NC(=O)N3c1cnc(Oc2ccccc2)cc1C (stereo in doubt) [Example 745, N-((3*S,4*R)-4-Acrylamidotetrahydrofuran-3-yl)-5-(*S)-(4-methyl-6-phenoxypyridin-3-yl)-4-oxo-4,5-dihydro-3H-1-thia-3,5,8-triazaacenaphthylene-2-carboxamide]",8.1
12,"C=CC(=O)N[C@@H]1COC[C@@H]1NC(=O)c1sc2nccc3c2c1NC(=O)N3c1cnc(Oc2ccccc2)cc1C (stereo in doubt) [Example 752, N-((*3R,*4S)-4-Acrylamidotetrahydrofuran-3-yl)-5-(*S)-(4-methyl-6-phenoxypyridin-3-yl)-4-oxo-4,5-dihydro-3H-1-thia-3,5,8-triazaacenaphthylene-2-carboxamide]",6.4
13,"O=C(CCCC(=O)NCCCOCCOCCOCCCNC(=O)CCCC[C@H]1SC[C@H]2NC(=O)N[C@H]21)NC/C=C/C(=O)N1CCCC(NC(=O)c2sc3nccc4c3c2NC(=O)N4c2ccc(Oc3ccccc3)cn2)C1 (stereo partly drawn) [Example 780, N^1-(15-oxo-19-((3aR,4R,6aS)-2-oxohexahydro-1H-thieno[3,4-d]imidazol-4-yl)-4,7,10-trioxa-14-azanonadecyl)-N^5-((E)-4-oxo-4-(3-(4-oxo-5-(5-phenoxypyridin-2-yl)-4,5-dihydro-3H-1-thia-3,5,8-triazaacenaphthylene-2-carboxamido)piperidin-1-yl)but-2-en-1-yl)glutaramide]",6.3

# Same assay, conditions: read-out: BTK_I_binding pIC50 (converted)
row,Structure (SMILES),IC50 [nM]
1,"C=CC(=O)N1C[C@@H](F)C[C@@H](NC(=O)c2sc3nccc4c3c2NC(=O)N4c2ccc(Oc3ccccc3)cc2C)C1 [Example 3, N-((3R,5S)-1-Acryloyl-5-fluoropiperidin-3-yl)-5-(2-methyl-4-phenoxyphenyl)-4-oxo-4,5-dihydro-3H-1-thia-3,5,8-triazaacenaphthylene-2-carboxamide]",12.6

# Same assay, conditions: unphosphorylated-BTK kinase domain, Lanthascreen, 60 minutes incubation; pIC50 = negative log of IC50 in molar
row,Structure (SMILES),BTK_I_binding pIC50
1,"Cc1cc(OC(C)C)ncc1N1C(=O)Nc2c(C(=O)N[C@@H]3CCNC3)sc3nccc1c23 (single isomer, unassigned) [Example 958, (R)-5-(*S)-(6-Isopropoxy-4-methylpyridin-3-yl)-4-oxo-N-(pyrrolidin-3-yl)-4,5-dihydro-3H-1-thia-3,5,8-triazaacenaphthylene-2-carboxamide]",<6
